In PubChem BioAssay (NCI):
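Values below derive from 48-hour exposures of cells grown in 96-well plates, with endpoints linearly interpolated between the two concentrations bracketing the appropriate inhibition level. GI50 = concentration required for 50% inhibition of growth. TGI denotes the concentration required for complete inhibition of growth.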

Columns and labels:
Assay in all cases: NCI-60 cell line screen, 48 h
SF-268 CNS = test system: SF-268 CNS
SK-MEL-28 melanoma = test system: SK-MEL-28 melanoma
SK-OV-3 ovarian = test system: SK-OV-3 ovarian
HCT-15 colon = test system: HCT-15 colon
HT29 colon = test system: HT29 colon
SN12C renal = test system: SN12C renal
SK-MEL-2 melanoma = test system: SK-MEL-2 melanoma
UACC-62 melanoma = test system: UACC-62 melanoma
NCI/ADR-RES ovarian = test system: NCI/ADR-RES ovarian
K-562 leukemia = test system: K-562 leukemia
ACHN renal = test system: ACHN renal
LOX IMVI melanoma = test system: LOX IMVI melanoma
SNB-75 CNS = test system: SNB-75 CNS
HOP-92 NSCLC = test system: HOP-92 NSCLC
MALME-3M melanoma = test system: MALME-3M melanoma
HOP-62 NSCLC = test system: HOP-62 NSCLC
MOLT-4 leukemia = test system: MOLT-4 leukemia
NCI-H522 lung = test system: NCI-H522 lung
M14 melanoma = test system: M14 melanoma
RXF 393 renal = test system: RXF 393 renal
BT-549 breast = test system: BT-549 breast
U251 CNS = test system: U251 CNS
MCF7 breast = test system: MCF7 breast
HS 578T breast = test system: HS 578T breast
OVCAR-8 ovarian = test system: OVCAR-8 ovarian
HL-60(TB) leukemia = test system: HL-60(TB) leukemia
IGROV1 ovarian = test system: IGROV1 ovarian
786-0 renal = test system: 786-0 renal
NCI-H226 lung = test system: NCI-H226 lung
CAKI-1 renal = test system: CAKI-1 renal
NCI-H460 lung = test system: NCI-H460 lung
SF-539 CNS = test system: SF-539 CNS
UACC-257 melanoma = test system: UACC-257 melanoma
SF-295 CNS = test system: SF-295 CNS
TK-10 renal = test system: TK-10 renal
MDA-MB-435 = test system: MDA-MB-435
UO-31 renal = test system: UO-31 renal
SW-620 colon = test system: SW-620 colon
A498 renal = test system: A498 renal
NCI-H23 lung = test system: NCI-H23 lung
HCT-116 colon = test system: HCT-116 colon
MDA-MB-231 breast = test system: MDA-MB-231 breast
DU-145 prostate = test system: DU-145 prostate
OVCAR-5 ovarian = test system: OVCAR-5 ovarian
HCC-2998 colon = test system: HCC-2998 colon
SK-MEL-5 melanoma = test system: SK-MEL-5 melanoma
KM12 colon = test system: KM12 colon
A549 NSCLC = test system: A549 NSCLC
SNB-19 CNS = test system: SNB-19 CNS
COLO 205 colon = test system: COLO 205 colon
OVCAR-3 ovarian = test system: OVCAR-3 ovarian
OVCAR-4 ovarian = test system: OVCAR-4 ovarian
EKVX NSCLC = test system: EKVX NSCLC
RPMI-8226 leukemia = test system: RPMI-8226 leukemia
PC-3 prostate = test system: PC-3 prostate
CCRF-CEM leukemia = test system: CCRF-CEM leukemia
T-47D breast = test system: T-47D breast
SR leukemia = test system: SR leukemia

## C[C@@H](Nc1c(C#N)cnc2ccc(-c3cnc(Cl)c(NS(C)(=O)=O)c3)cc12)c1ccccc1
SF-268 CNS
  GI50: 275 nM
  TGI: 7330 nM
SK-MEL-28 melanoma
  GI50: 346 nM
  TGI: 11200 nM
SK-OV-3 ovarian
  GI50: 431 nM
  TGI: 3180 nM
HCT-15 colon
  GI50: 303 nM
  TGI: 11500 nM
HT29 colon
  GI50: 351 nM
  TGI: 12900 nM
SN12C renal
  GI50: 322 nM
  TGI: > 100000 nM
SK-MEL-2 melanoma
  GI50: 249 nM
  TGI: 1590 nM
UACC-62 melanoma
  GI50: 206 nM
  TGI: 2030 nM
NCI/ADR-RES ovarian
  GI50: 1610 nM
  TGI: 32100 nM
K-562 leukemia
  GI50: 264 nM
  TGI: > 100000 nM
ACHN renal
  GI50: 540 nM
  TGI: 44100 nM
LOX IMVI melanoma
  GI50: 275 nM
  TGI: 1680 nM
SNB-75 CNS
  GI50: < 35.3 nM
  TGI: 701 nM
HOP-92 NSCLC
  GI50: 51.5 nM
  TGI: 636 nM
MALME-3M melanoma
  GI50: 166 nM
  TGI: 1820 nM
HOP-62 NSCLC
  GI50: 326 nM
  TGI: 5120 nM
MOLT-4 leukemia
  GI50: 144 nM
  TGI: 1810 nM
NCI-H522 lung
  GI50: 440 nM
  TGI: 11500 nM
M14 melanoma
  GI50: 442 nM
  TGI: 12500 nM
RXF 393 renal
  GI50: 158 nM
  TGI: 877 nM
BT-549 breast
  GI50: 146 nM
  TGI: 2560 nM
U251 CNS
  GI50: 335 nM
  TGI: 13400 nM
MCF7 breast
  GI50: 41.7 nM
  TGI: 4080 nM
HS 578T breast
  GI50: 181 nM
  TGI: 1290 nM
OVCAR-8 ovarian
  GI50: 559 nM
  TGI: > 36600 nM
HL-60(TB) leukemia
  GI50: 222 nM
  TGI: 6480 nM
IGROV1 ovarian
  GI50: 181 nM
  TGI: 1010 nM
786-0 renal
  GI50: 365 nM
  TGI: > 100000 nM
NCI-H226 lung
  GI50: 676 nM
  TGI: 18200 nM
CAKI-1 renal
  GI50: 241 nM
  TGI: 3980 nM
NCI-H460 lung
  GI50: 357 nM
  TGI: 12000 nM
SF-539 CNS
  GI50: 372 nM
  TGI: 4080 nM
UACC-257 melanoma
  GI50: 495 nM
  TGI: 7050 nM
SF-295 CNS
  GI50: 252 nM
  TGI: 2290 nM
TK-10 renal
  GI50: 184 nM
  TGI: 1880 nM
MDA-MB-435
  GI50: 495 nM
  TGI: 11400 nM
UO-31 renal
  GI50: 256 nM
  TGI: 9300 nM
SW-620 colon
  GI50: 343 nM
  TGI: 12100 nM
A498 renal
  GI50: 207 nM
  TGI: 778 nM
NCI-H23 lung
  GI50: 233 nM
  TGI: 5840 nM
HCT-116 colon
  GI50: 124 nM
  TGI: 4830 nM
MDA-MB-231 breast
  GI50: 594 nM
  TGI: 16600 nM
DU-145 prostate
  GI50: 380 nM
  TGI: 11700 nM
OVCAR-5 ovarian
  GI50: 544 nM
  TGI: 19200 nM
HCC-2998 colon
  GI50: 515 nM
  TGI: 8730 nM
SK-MEL-5 melanoma
  GI50: 138 nM
  TGI: 283 nM
KM12 colon
  GI50: 493 nM
  TGI: 11300 nM
A549 NSCLC
  GI50: 492 nM
  TGI: 6470 nM
SNB-19 CNS
  GI50: 500 nM
  TGI: 12100 nM
COLO 205 colon
  GI50: 340 nM
  TGI: 2240 nM
OVCAR-3 ovarian
  GI50: 260 nM
  TGI: 3820 nM
OVCAR-4 ovarian
  GI50: 450 nM
  TGI: 15400 nM
EKVX NSCLC
  GI50: 431 nM
  TGI: 5350 nM
RPMI-8226 leukemia
  GI50: 121 nM
  TGI: 582 nM
PC-3 prostate
  GI50: 259 nM
  TGI: 7970 nM
CCRF-CEM leukemia
  GI50: 178 nM
  TGI: > 21400 nM
T-47D breast
  GI50: 112 nM
  TGI: 3880 nM
SR leukemia
  GI50: 206 nM
  TGI: 6190 nM
